Where “and” joins values, the source holds several entries; their conditions need not be identical. Equal values may be shown once. Read-outs that look alike come from different tables or passages of the source.
How the values were obtained:
[1] = biological target: T1, BdUGT5g03300 (Brachypodium distachyon, UniProt I1IW79); assay: biochemical
T1 sequence (I1IW79 1-469): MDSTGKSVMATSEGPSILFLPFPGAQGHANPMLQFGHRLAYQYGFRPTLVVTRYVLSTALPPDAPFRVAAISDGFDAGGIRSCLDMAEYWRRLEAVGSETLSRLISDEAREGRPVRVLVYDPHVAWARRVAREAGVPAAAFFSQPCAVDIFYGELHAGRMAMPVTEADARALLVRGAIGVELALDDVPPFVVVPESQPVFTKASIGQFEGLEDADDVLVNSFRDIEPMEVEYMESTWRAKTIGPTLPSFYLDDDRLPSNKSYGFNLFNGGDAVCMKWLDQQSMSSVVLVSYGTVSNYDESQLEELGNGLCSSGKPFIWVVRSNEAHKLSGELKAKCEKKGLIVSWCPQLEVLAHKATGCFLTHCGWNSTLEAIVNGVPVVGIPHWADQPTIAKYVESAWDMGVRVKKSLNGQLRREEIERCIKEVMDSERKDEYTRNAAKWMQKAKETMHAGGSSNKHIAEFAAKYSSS

[2] = biological target: T2, OsUGT79 (Oryza sativa subsp. japonica, UniProt Q7XT97); assay: biochemical; type: biochemical
T2 construct: made in house; host or cells: E. coli
T2 sequence (Q7XT97 1-466): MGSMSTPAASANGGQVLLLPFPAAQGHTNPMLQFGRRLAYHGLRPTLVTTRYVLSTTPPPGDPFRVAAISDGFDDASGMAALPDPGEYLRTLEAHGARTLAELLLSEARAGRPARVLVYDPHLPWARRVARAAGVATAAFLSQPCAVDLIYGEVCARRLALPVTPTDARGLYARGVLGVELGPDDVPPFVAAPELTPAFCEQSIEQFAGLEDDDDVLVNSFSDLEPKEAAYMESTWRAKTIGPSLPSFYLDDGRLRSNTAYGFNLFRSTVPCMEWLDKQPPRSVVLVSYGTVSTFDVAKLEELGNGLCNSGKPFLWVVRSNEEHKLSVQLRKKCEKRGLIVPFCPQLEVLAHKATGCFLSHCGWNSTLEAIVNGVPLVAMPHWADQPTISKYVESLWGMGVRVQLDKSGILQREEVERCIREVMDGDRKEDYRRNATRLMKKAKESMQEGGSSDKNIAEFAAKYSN

[3] = biological target: T3, HvUGT13248 (Hordeum vulgare subsp. vulgare, UniProt M0Y4P1)
T3 sequence (M0Y4P1 1-475): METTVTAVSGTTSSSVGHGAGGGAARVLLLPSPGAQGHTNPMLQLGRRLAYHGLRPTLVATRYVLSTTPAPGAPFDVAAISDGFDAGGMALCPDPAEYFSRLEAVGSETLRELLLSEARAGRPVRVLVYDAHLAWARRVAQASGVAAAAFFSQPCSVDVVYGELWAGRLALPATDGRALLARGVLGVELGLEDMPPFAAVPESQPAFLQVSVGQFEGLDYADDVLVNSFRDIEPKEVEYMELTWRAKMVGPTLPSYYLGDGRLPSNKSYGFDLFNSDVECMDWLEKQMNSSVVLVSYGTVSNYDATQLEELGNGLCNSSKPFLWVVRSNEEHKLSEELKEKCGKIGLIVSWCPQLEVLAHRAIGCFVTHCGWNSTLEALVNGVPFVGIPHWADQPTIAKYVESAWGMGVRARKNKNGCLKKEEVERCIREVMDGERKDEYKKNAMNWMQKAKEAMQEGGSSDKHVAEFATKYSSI

[4] = biological target: T4, OsUGT79 Q202A (Oryza sativa subsp. japonica, UniProt Q7XT97, Q202A); type: biochemical
T4 sequence (Q7XT97 1-466 Q202A): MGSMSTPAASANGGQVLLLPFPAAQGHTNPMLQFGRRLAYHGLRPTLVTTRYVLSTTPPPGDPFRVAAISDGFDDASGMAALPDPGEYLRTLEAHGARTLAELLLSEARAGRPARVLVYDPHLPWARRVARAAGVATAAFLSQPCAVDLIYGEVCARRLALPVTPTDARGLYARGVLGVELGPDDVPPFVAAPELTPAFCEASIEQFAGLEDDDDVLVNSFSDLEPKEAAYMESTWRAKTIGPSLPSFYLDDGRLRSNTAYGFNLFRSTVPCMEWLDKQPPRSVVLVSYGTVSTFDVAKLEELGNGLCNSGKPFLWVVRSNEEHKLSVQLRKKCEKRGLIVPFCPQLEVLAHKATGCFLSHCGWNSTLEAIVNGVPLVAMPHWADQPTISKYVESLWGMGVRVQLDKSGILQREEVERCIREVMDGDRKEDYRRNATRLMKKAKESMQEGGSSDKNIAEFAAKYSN

[5] = biological target: T5, OsUGT79 H122A/L123A/Q202A (Oryza sativa subsp. japonica, UniProt Q7XT97, H122A/L123A/Q202A); type: biochemical
T5 sequence (Q7XT97 1-466 H122A/L123A/Q202A): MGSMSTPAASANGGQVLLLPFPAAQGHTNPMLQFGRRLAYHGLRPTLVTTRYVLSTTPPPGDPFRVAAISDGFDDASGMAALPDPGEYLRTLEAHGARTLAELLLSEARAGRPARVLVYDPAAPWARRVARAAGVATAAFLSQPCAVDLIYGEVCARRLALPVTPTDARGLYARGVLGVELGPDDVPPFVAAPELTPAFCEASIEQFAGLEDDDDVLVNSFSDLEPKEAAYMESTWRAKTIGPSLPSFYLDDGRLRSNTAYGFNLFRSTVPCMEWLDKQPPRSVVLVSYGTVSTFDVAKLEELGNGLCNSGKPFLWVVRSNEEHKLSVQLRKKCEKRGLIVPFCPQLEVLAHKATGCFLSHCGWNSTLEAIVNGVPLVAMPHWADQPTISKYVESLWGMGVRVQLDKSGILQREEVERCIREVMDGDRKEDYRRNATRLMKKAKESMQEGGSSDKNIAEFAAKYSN

[6] = biological target: T1, BdUGT5g03300; type: biochemical
[7] = biological target: T2, OsUGT79; assay: biochemical; type: biochemical; remark: listed apart in the source
[8] = biological target: T4, OsUGT79 Q202A; assay: biochemical; type: biochemical
[9] = biological target: T5, OsUGT79 H122A/L123A/Q202A; assay: biochemical; type: biochemical
[10] = test system: wheat cultivar Apogee seedlings; set-up: species or system Triticum aestivum; details: in vivo
[11] = test system: B. distachyon Bd21-3; set-up: species or system Brachypodium distachyon; details: in vivo
[12] = test system: B. distachyon line OE-10R14; set-up: species or system Brachypodium distachyon; details: in vivo
[13] = biological target: T3, HvUGT13248; assay: biochemical; type: biochemical; set-up: made in house; host or cells: E. coli
[14] = substrate: CC1(C)CCC[C@]2(C)[C@@H]3[C@H]1[C@@H](O)[C@@]2(C)C[C@H]3O; assay: purified protein, by the assay type

Molecule: Culmorin-8,11-disulfate
- Glucosylation rate of DON, percentage of the control [1]: 95±1% and 78±1%
- Glucosylation rate of DON, percentage of the control [2]: 103±2% and 99±7%
- Glucosylation rate of DON, percentage of the control [3]: 98±2%

Molecule: 11-Acetyl-culmorin
- Glucosylation rate of DON, percentage of the control [1]: 0.83±0.01%

Molecule: Culmorin-11-sulfate
- Glucosylation rate of DON, percentage of the control [1]: 0.30±0.02%
- Glucosylation rate of DON, percentage of the control [2]: 91±7% and 61±2%
- Glucosylation rate of DON, percentage of the control [3]: 90±2% and 49±3%

Molecule: Culmorin-11-glucoside
- Glucosylation rate of DON, percentage of the control [1]: 0.48±0.03%
- Glucosylation rate of DON, percentage of the control [2]: 96±7% and 115±5%

Molecule: CC1=C[C@H]2O[C@@H]3[C@H](O)C[C@](C)([C@@]2(CO)[C@H](O)C1=O)[C@]31CO1 [DON, deoxynivalenol]
- Specific activity (glucoside formation) [1]: 1.07 ± 0.03 nmol/min/mg
- Specific activity (glucoside formation) [2]: 159 ± 33 nmol/min/mg
- Specific activity (glucoside formation) [4]: 161 ± 46 nmol/min/mg
- Specific activity (glucoside formation) [5]: 6.60 ± 0.31 nmol/min/mg
- K M (DON) [6]: 1100 µM
- V max with DON [6]: 0.14 µmol/min/mg
- K M (DON) [7]: 190 µM
- V max with DON [7]: 0.63 µmol/min/mg
- K M (DON) [8]: 290 µM
- V max with DON [8]: 0.85 µmol/min/mg
- K M (DON) [9]: 1300 µM
- V max with DON [9]: 0.26 µmol/min/mg
- DON concentration at which root growth was already impaired [10]: 3 mg/L
- Effect on primary and total root length [10]: significant reduction
- DON concentration up to which root growth was observed [11]: up to 16 mg l^−1
- DON concentrations at which root growth was not affected or barely affected [11]: 2 to 8 mg/L
- DON concentration tolerated without significant reduction in root length [12]: up to 50 mg l^−1
- Specific activity (glucoside formation) [3]: 8.77 ± 0.52 nmol/min/mg
- K M (DON) [13]: 1800 µM
- V max with DON [13]: 0.18 µmol/min/mg

Molecule: Culmorin-8-glucoside
- Glucosylation rate of DON, percentage of the control [1]: 0.93±0.02%
- Glucosylation rate of DON, percentage of the control [2]: 97±7% and 91±7%
- Glucosylation rate of DON, percentage of the control [3]: 92±2% and 81±3%

Molecule: Culmorin-8-sulfate
- Glucosylation rate of DON, percentage of the control [2]: 105±1% and 89±4%
- Glucosylation rate of DON, percentage of the control [3]: 97±4% and 79±1%

B1: BdUGT5g03380 (Brachypodium distachyon) (protein)
chain: MESVNTSPHSSDHEGGGGGGAHVLLVPLPAQGHMNPMLQFGRRLAYHGLRPTLAATRYVLSTGPPPGAPFRVAAFSDGFDAGGMASCADPVEYCRKFEAVGSSTLAQAIESETAAGRAPTVLVYDPHMAWVPRVARAAGVPVAAFMSQSCAVDLVYGEAWAGRAPLPMADGSALKRRGIVSIDLAAEDLSPFVVSPEIYPKYLDVSIRQFEALDDADDVFVNSFRDLEPLEAEYMEKRWRAKTVGPTLPSFFLGDDRLPSNKAYGVNFFSATAPCMAWLDRQPARSVVLASYGTVYNLESMELDELGNGLCDSGKPFLWVVRSSEAEKLSEQLLGRCKEKGLIVPWCPQLDVLAHNAIGCFLTHCGWNSTTEAIVAGVPMVAMPRSADQPTTAKYVESAWGIGVRVRADEKGLVKRAEVEGCIKKVMDGEMKDEFRGNAAEWMRKAKEAMQEGGSSDKNIAEFAAKYLER
- Km [14]: 150 µM
- Vmax [14]: 0.43 ± 0.03 nmol/min/mg

B2: BdUGT5g03370 (Brachypodium distachyon) (protein)
chain: MDSINTTAQRSIGGGGGHVLLLPFPGMQGHANPMLQLGRRLAYHGLRPTLVVTRYVFSTTATTDGCPFPVAAISDGFDAGGIASCPDTAEYLRRMESVGSETLSRLISDEARAGRPVRVLVYDSHLPWARRAAKRAGVAAAAFLTQLCAVDVIYGEAWAGRVALPLTDGSALRGVLSVELGPDDVPPFVAAPEWYPAFTESALGQFDGLEEADDVLVNSFRDLEPKEADYMELVWRTKTVGPTLPSFYLDDNRLPLNKTYGFNLFSSIALCMEWLDKQVPCSVVLASYGTVANLNSTQLEELGYGLCNSRQPFLWVLRSDEAEKLPKDLRDKCNTKGLIVPFCPQLEVLAHKATGCFLTHCGWNSTIEAIVTGVPMVAIPQWADQPTTAKYVESAWGIGRRACPDRECLVTREKIERCVKEVICGEKEYTRNAAKWMQKAKEAMQQGGSSDKNISDFVAKYL
- Km [14]: 59 ± 7 µM
- Vmax [14]: 0.57 nmol/min/mg

B3: HvUGT13248 (Hordeum vulgare subsp. vulgare) (protein)
chain: METTVTAVSGTTSSSVGHGAGGGAARVLLLPSPGAQGHTNPMLQLGRRLAYHGLRPTLVATRYVLSTTPAPGAPFDVAAISDGFDAGGMALCPDPAEYFSRLEAVGSETLRELLLSEARAGRPVRVLVYDAHLAWARRVAQASGVAAAAFFSQPCSVDVVYGELWAGRLALPATDGRALLARGVLGVELGLEDMPPFAAVPESQPAFLQVSVGQFEGLDYADDVLVNSFRDIEPKEVEYMELTWRAKMVGPTLPSYYLGDGRLPSNKSYGFDLFNSDVECMDWLEKQMNSSVVLVSYGTVSNYDATQLEELGNGLCNSSKPFLWVVRSNEEHKLSEELKEKCGKIGLIVSWCPQLEVLAHRAIGCFVTHCGWNSTLEALVNGVPFVGIPHWADQPTIAKYVESAWGMGVRARKNKNGCLKKEEVERCIREVMDGERKDEYKKNAMNWMQKAKEAMQEGGSSDKHVAEFATKYSSI
- Km ([14]; pH 7.0): 27 ± 4 µM
- Vmax ([14]; pH 7.0): 18.2 ± 0.8 nmol/min/mg

— publication PMC13415951 (Journal of Experimental Botany, 2026)
